Test results: ChEMBL document CHEMBL1201862, “PubChem BioAssay data set” (2004)
Where “and” joins values, the source holds several entries; their conditions need not be identical. Equal values may be shown once.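 Method: 48-hour compound exposure of cells in 96-well plates, five concentrations, linear interpolation of endpoints. GI50 marks 50% less growth.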 Calls of active or inactive are those of the source. Cut-off read from the data, not from the text of the source: active = GI50 up to about 1.1 µM and inactive = higher.

Assays:
Test in all cases: NCI tumour cell line growth inhibition, 48 h
[1] = test system: SK-MEL-2
[2] = test system: OVCAR-5
[3] = test system: MCF7
[4] = test system: UACC-62
[5] = test system: SNB-19
[6] = test system: CCRF-CEM
[7] = test system: HOP-92
[8] = test system: A498
[9] = test system: U-251
[10] = test system: M14
[11] = test system: SNB-75
[12] = test system: HL-60
[13] = test system: COLO 205
[14] = test system: UACC-257
[15] = test system: OVCAR-3
[16] = test system: IGROV-1
[17] = test system: SR
[18] = test system: MDA-MB-435
[19] = test system: HCT-15
[20] = test system: KM12
[21] = test system: PC-3
[22] = test system: TK-10
[23] = test system: DU-145
[24] = test system: SK-MEL-5
[25] = test system: T47D
[26] = test system: SK-OV-3
[27] = test system: SF-268
[28] = test system: Hs-578T
[29] = test system: HCT-116
[30] = test system: A549
[31] = test system: SF-539
[32] = test system: ACHN
[33] = test system: NCI/ADR-RES
[34] = test system: NCI-H460
[35] = test system: SN12C
[36] = test system: HOP-62
[37] = test system: NCI-H23
[38] = test system: MOLT-4
[39] = test system: Malme-3M
[40] = test system: MDA-N
[41] = test system: K562
[42] = test system: SW-620
[43] = test system: OVCAR-8
[44] = test system: OVCAR-4
[45] = test system: SF-295
[46] = test system: RPMI-8226
[47] = test system: HT-29
[48] = test system: SK-MEL-28
[49] = test system: NCI-H522
[50] = test system: HCC 2998
[51] = test system: MDA-MB-231
[52] = test system: CAKI-1
[53] = test system: LOX IMVI
[54] = test system: UO-31
[55] = test system: RXF 393
[56] = test system: 786-0
[57] = test system: NCI-H226
[58] = test system: EKVX

Structure (SMILES): CC[C@@]1(O)C[C@H](OC2CC(N(C)C)C(OC3CC(O)C(OC4CCC(=O)C(C)O4)C(C)O3)C(C)O2)c2c(cc3c(c2O)C(=O)c2c(O)ccc(O)c2C3=O)[C@H]1C(=O)OC (some centres undefined)
- GI50 [1]: < 0.01 µM (active)
- GI50 [2]: 0.01 µM (active)
- GI50 [3]: < 0.0001 µM (active)
- GI50 [4]: < 10 nM (active)
- GI50 [5]: < 0.0001 µM (active)
- GI50 [6]: < 0.0001 µM (active)
- GI50 [7]: < 0.01 µM (active)
- GI50 [8]: < 0.01 µM (active)
- GI50 [9]: < 0.01 µM (active)
- GI50 [10]: < 0.01 µM (active)
- GI50 [11]: 0.0181 µM (active)
- GI50 [12]: < 0.0001 µM (active)
- GI50 [13]: < 0.0001 µM (active)
- GI50 [14]: 0.0153 µM (active)
- GI50 [15]: < 0.01 µM (active)
- GI50 [16]: < 0.0001 µM (active)
- GI50 [17]: < 0.01 µM (active)

Structure (SMILES): CN1C2C=CC(=O)C1C(C#N)C2 (centres undefined)
- GI50 [18]: 29.5 µM (inactive) and 42.9 µM (inactive)
- GI50 [3]: 31.8 µM (inactive) and 35.8 µM (inactive)
- GI50 [4]: 80.4 µM (inactive) and 76.4 µM (inactive)
- GI50 [19]: 30.5 µM and 24.1 µM
- GI50 [20]: 42.9 µM (inactive) and 38.5 µM (inactive)
- GI50 [21]: > 100 µM (inactive)
- GI50 [5]: 77.8 µM (inactive)
- GI50 [6]: 23.2 µM (inactive) and 19 µM (inactive)
- GI50 [22]: > 100 µM (inactive) and 66.4 µM (inactive)
- GI50 [23]: 68.7 µM (inactive) and 40 µM (inactive)
- GI50 [7]: 9.82 µM (inactive) and 16.4 µM (inactive)
- GI50 [24]: 55.1 µM (inactive)
- GI50 [25]: 21.1 µM (inactive) and 39.2 µM (inactive)
- GI50 [8]: 49.5 µM (inactive) and 46.1 µM (inactive)
- GI50 [26]: > 100 µM (inactive) and 83.8 µM (inactive)
- GI50 [27]: 95.9 µM (inactive) and 75.5 µM (inactive)
- GI50 [28]: > 100 µM (inactive) and 85.3 µM (inactive)
- GI50 [29]: 33.5 µM (inactive) and 18.9 µM (inactive)
- GI50 [30]: 66.4 µM (inactive) and 34.5 µM (inactive)
- GI50 [12]: 32.2 µM (inactive) and 18.6 µM (inactive)
- GI50 [31]: 28.4 µM (inactive) and 36.3 µM (inactive)
- GI50 [32]: 72.3 µM (inactive) and 52.5 µM (inactive)
- GI50 [33]: 30.5 µM (inactive) and 28.2 µM (inactive)
- GI50 [34]: 37.2 µM (inactive) and 31.7 µM (inactive)
- GI50 [35]: 59.7 µM (inactive) and 35.8 µM (inactive)
- GI50 [36]: 94.4 µM (inactive)
- GI50 [37]: 32.4 µM (inactive) and 22.3 µM (inactive)
- GI50 [38]: 30.1 µM (inactive) and 29.5 µM (inactive)
- GI50 [15]: 62.1 µM (inactive) and 35.4 µM (inactive)
- GI50 [39]: 24 µM (inactive) and 40 µM (inactive)
- GI50 [16]: 56 µM (inactive)
- GI50 [40]: 29.1 µM (inactive) and 41.3 µM (inactive)
- GI50 [41]: 36.1 µM (inactive) and 19.3 µM (inactive)
- GI50 [42]: 28.7 µM (inactive) and 51.8 µM (inactive)

Structure (SMILES): COP(=O)(OC)/C(=C/c1cn(C(C)=O)c2ccccc12)NC(C)=O
- GI50 [43]: 32.2 µM (inactive)
- GI50 [1]: 2.18 µM (inactive)
- GI50 [2]: > 100 µM (inactive)
- GI50 [18]: 4.62 µM (inactive)
- GI50 [3]: 8.91 µM (inactive)
- GI50 [19]: 18.1 µM
- GI50 [21]: 22.4 µM (inactive)
- GI50 [6]: 16.7 µM (inactive)
- GI50 [22]: 58.2 µM (inactive)
- GI50 [44]: 33.2 µM (inactive)
- GI50 [23]: > 100 µM (inactive)
- GI50 [45]: 37.2 µM (inactive)
- GI50 [7]: > 10 µM (inactive)
- GI50 [24]: 22.1 µM (inactive)
- GI50 [25]: 38.5 µM (inactive)
- GI50 [8]: 16.6 µM (inactive)
- GI50 [46]: 12.6 µM (inactive)
- GI50 [26]: > 100 µM (inactive)
- GI50 [47]: 41.6 µM (inactive)
- GI50 [28]: 35.4 µM (inactive)
- GI50 [9]: 33.2 µM (inactive)
- GI50 [10]: 41.8 µM (inactive)
- GI50 [29]: 26.4 µM (inactive)
- GI50 [30]: > 100 µM (inactive)
- GI50 [11]: 49.2 µM (inactive)
- GI50 [48]: 36.4 µM (inactive)
- GI50 [12]: 13.1 µM (inactive)
- GI50 [49]: > 100 µM (inactive)
- GI50 [13]: 61.4 µM (inactive)
- GI50 [32]: 53 µM (inactive)
- GI50 [33]: 28.8 µM (inactive)
- GI50 [50]: > 10 µM (inactive)
- GI50 [34]: 52.5 µM (inactive)
- GI50 [35]: 31.6 µM (inactive)
- GI50 [51]: 36.1 µM (inactive)
- GI50 [52]: 40.9 µM (inactive)
- GI50 [36]: 41.3 µM (inactive)
- GI50 [14]: > 100 µM (inactive)
- GI50 [53]: 13 µM (inactive)
- GI50 [37]: 37.7 µM (inactive)
- GI50 [38]: > 10 µM (inactive)
- GI50 [15]: 21.3 µM (inactive)
- GI50 [16]: 54.8 µM (inactive)
- GI50 [40]: 13.8 µM (inactive)
- GI50 [17]: 15.8 µM (inactive)
- GI50 [41]: 6.75 µM (inactive)
- GI50 [42]: 18.5 µM (inactive)

Structure (SMILES): CCC(c1ccc(OC)cc1)C1NC(=S)NC1=O (centres undefined)
- GI50 [43]: > 50 µM (inactive)
- GI50 [1]: > 50 µM (inactive)
- GI50 [2]: > 50 µM (inactive)
- GI50 [18]: > 50 µM (inactive)
- GI50 [54]: > 50 µM (inactive)
- GI50 [3]: > 50 µM (inactive)
- GI50 [19]: > 50 µM
- GI50 [20]: > 50 µM (inactive)
- GI50 [21]: > 50 µM (inactive)
- GI50 [5]: > 50 µM (inactive)
- GI50 [6]: > 50 µM (inactive)
- GI50 [22]: > 50 µM (inactive)
- GI50 [44]: > 50 µM (inactive)
- GI50 [23]: > 50 µM (inactive)
- GI50 [45]: > 50 µM (inactive)
- GI50 [7]: > 50 µM (inactive)
- GI50 [24]: > 50 µM (inactive)
- GI50 [25]: > 50 µM (inactive)
- GI50 [8]: > 50 µM (inactive)
- GI50 [46]: > 50 µM (inactive)
- GI50 [26]: > 50 µM (inactive)
- GI50 [27]: > 50 µM (inactive)
- GI50 [47]: > 50 µM (inactive)
- GI50 [28]: > 50 µM (inactive)
- GI50 [9]: > 50 µM (inactive)
- GI50 [10]: > 50 µM (inactive)
- GI50 [29]: > 50 µM (inactive)
- GI50 [30]: > 50 µM (inactive)
- GI50 [55]: > 50 µM (inactive)
- GI50 [56]: > 50 µM (inactive)
- GI50 [11]: > 50 µM (inactive)
- GI50 [48]: > 50 µM (inactive)
- GI50 [12]: 12.4 µM (inactive)
- GI50 [49]: > 50 µM (inactive)
- GI50 [13]: > 50 µM (inactive)
- GI50 [57]: > 50 µM (inactive)
- GI50 [31]: > 50 µM (inactive)
- GI50 [32]: > 50 µM (inactive)
- GI50 [33]: > 50 µM (inactive)
- GI50 [58]: 34.2 µM (inactive)
- GI50 [50]: > 50 µM (inactive)
- GI50 [34]: > 50 µM (inactive)
- GI50 [35]: > 50 µM (inactive)
- GI50 [51]: > 50 µM (inactive)
- GI50 [52]: > 50 µM (inactive)
- GI50 [36]: > 50 µM (inactive)
- GI50 [14]: > 50 µM (inactive)
- GI50 [53]: > 50 µM (inactive)
- GI50 [37]: > 50 µM (inactive)
- GI50 [38]: 35.5 µM (inactive)
- GI50 [15]: > 50 µM (inactive)
- GI50 [39]: > 50 µM (inactive)
- GI50 [16]: > 50 µM (inactive)
- GI50 [40]: > 50 µM (inactive)
- GI50 [41]: 17.5 µM (inactive)
- GI50 [42]: > 50 µM (inactive)
